# Experimental data as given in patent US20060265770A1, “Transgenic mice containing glutamate receptor (GRIK5) gene disruptions” (priority 2000, published 2006).
# Tested on: F2N1 Male Mice
# Assay: Metrazol Test (seizure susceptibility, tail vein infusion)
# Assay type: in vivo, mouse
# Conditions: for dose at death, Average ± Stdev / dose at first twitch, Average ± Stdev / dose at tonic extension, Average ± Stdev / dose at tonic/clonic seizure, Average ± Stdev: 5 mg/mL Metrazol infused through tail vein at 0.375 mL/min
# Procedure: A metrazol administration test can be used to screen animals for varying susceptibilities to seizures or similar events. For example, a 5 mg/ml solution of metrazol can be infused through the tail vein of a mouse at a rate of, e.g., approximately 0.375 ml/min. The infusion will cause all mice to experience seizures, followed by death. Those mice that enter the seizure stage the soonest are believed to be more prone to seizures.
# To screen for phenotypes involving changes in seizure susceptibility, the Metrazol Test was used. A 5 mg/mL solution of Metrazol was infused through the tail vein of the mouse at a constant rate of 0.375 mL/min. The infusion causes all mice to experience seizures. Those mice who enter the seizure stage the quickest are thought to be more prone to seizures in general.
# To screen for phenotypes involving epilepsy, the Metrazol was used. Seven to ten adult wild-type and homozygote males were used. A fresh solution of 5 mg/ml pentylenetetrazole in 0.9% NaCl was prepared prior to testing. Mice were weighed and loosely held in a restrainer. After exposure to a heat lamp to dilate the tail vein, mice were continuously infused with the pentylenetetrazole solution using a syringe pump set at a constant flow rate. The following stages were recorded: first twitch (sometimes accompanied by a squeak), beginning of the tonic/clonic seizure, tonic extension and survival time. The dose required for each phase is determined and the latency to each phase was determined between genotypes. Alterations in any stage may indicate an overall imbalance in excitatory or inhibitory neurotransmitter levels. When compared to age- and gender-matched wild-type (+/+) control mice, homozygous mutant (−/−) mice required a lower dose of metrazol to induce a tonic/clonic seizure (FIG. 5 and Table 1), indicating an increased susceptibility to seizure.
# [1] = GRIK5 homozygous mutant (−/−) F2N1 male mice
structure (smiles),measurement,setting,value
"C1CCc2nnnn2CC1 [Metrazol, pentylenetetrazole]","dose at death, Average ± Stdev",[1],136.12 ± 27.18 mg/kg
same,"dose at first twitch, Average ± Stdev",[1],26.38 ± 2.59 mg/kg
same,"dose at tonic extension, Average ± Stdev",[1],115.34 ± 28.63 mg/kg
same,"dose at tonic/clonic seizure, Average ± Stdev",[1],34.02 ± 6.24 mg/kg
same,"dose of metrazol to induce a tonic/clonic seizure, in words",homozygous mutant (−/−) mice compared to age- and gender-matched wild-type (+/+) control mice,lower dose
same,"dose at death, Average ± Stdev",wild-type (+/+) F2N1 male mice,134.29 ± 31.19 mg/kg
same,"dose at first twitch, Average ± Stdev",wild-type (+/+) F2N1 male mice,29.73 ± 3.85 mg/kg
same,"dose at tonic extension, Average ± Stdev",wild-type (+/+) F2N1 male mice,112.07 ± 29.70 mg/kg
same,"dose at tonic/clonic seizure, Average ± Stdev",wild-type (+/+) F2N1 male mice,44.59 ± 9.74 mg/kg
